Laboratory results as given in PMC7822874, “Chemoprotective antimalarials identified through quantitative high-throughput screening of Plasmodium blood and liver stage parasites” (Scientific Reports, 2021).

Tested on: Plasmodium falciparum Dd2 asexual blood stage parasites
Test: microbe, parasite or virus in culture
Set-up: species or system Plasmodium falciparum Dd2 in human erythrocytes; single determination (one 11-point concentration-response curve)
Settings: Plasmodium falciparum, DD2, Erythrocyte, 72 h; read-out: AC50

CC(C)n1cc(CN2CCCC23CCN(c2ccc(C(F)(F)F)cn2)CC3)cn1 [NCGC00442913-01]
AC50: 9.44 µM

Cc1ccc(CNC(=O)c2ccc(N3CCC4(CC3)CC(c3cccc(Br)c3)=NO4)c(NC(=O)c3ccco3)c2)cc1 [MLS001074407-01]
AC50: 8.41 µM

CC(C)NC(=O)OC[C@H]1C[C@@H]2CCN1C[C@@H]2c1cc(-c2ccc(F)cc2)nn1C [NCGC00399718-01]
AC50: 13.7 µM

COc1ccccc1Nc1cnc2ccc(-c3ccc(F)cc3)nn12 [NCGC00412490-01]
AC50: 6.85 µM

N#Cc1ccc(CN2CC[C@@H]3C(=O)NCCCCCCN(Cc4ccncc4)[C@@H]3C2)cc1 [NCGC00467216-01]
AC50: 10.6 µM

O=C(c1cc(C(=O)NCc2ccccc2)c(=O)n(Cc2ccccc2)c1)c1cc(Br)ccc1O [MLS000402314-01]
AC50: 4.73 µM

CC(C)C(=O)Nc1oc(-c2ccccc2)cc1C#N [MLS000721149-01]
AC50: 6.68 µM

CCCCCCNC(=O)Cc1csc2nc(C)c(-c3cc(C)n(-c4cccc(C)c4)n3)c(=O)n12 [NCGC00473470-01]
AC50: 15 µM

CCOC(=O)c1sc(NC(=O)C2c3ccccc3Oc3ccccc32)c(C(=O)OCC)c1C [NCGC00100913-01]
AC50: 2.66 µM

Cc1noc(C)c1-c1cc2cc(CN(C)C)oc2c(NCCc2ccccc2)n1 [NCGC00417471-01]
AC50: 13.7 µM

COc1ccccc1CN1CCC(CNC(=O)c2cnn(-c3ccc(Cl)cc3)c2C2CCN(C(=O)OC(C)(C)C)CC2)CC1 [NCGC00126796-01]
AC50: 2.66 µM

COc1ccc(-c2c[nH]c([C@@H]3COCCN3Cc3ccccc3O)n2)cc1 [NCGC00394307-01]
AC50: 17.2 µM

CCC(C(=O)NCCn1ccn2nc(-c3ccc(OC)cc3)cc2c1=O)c1ccccc1 (stereo not drawn) [NCGC00456905-01]
AC50: 15 µM

Cc1cc(CN2CCC(CO)(Cc3ccccc3Cl)CC2)cc(C)c1O [NCGC00426527-01]
AC50: 16.8 µM

CCCCn1c(NS(=O)(=O)c2ccccc2)c(C(=O)OCC)c2nc3ccccc3nc21 [MLS000589117-01]
AC50: 10.6 µM

O=C(NC(S)=Nc1ccc(NC(=O)c2cccs2)cc1)c1ccco1 [MLS000567605-01]
AC50: 9.44 µM

Cc1nn2c3c(cnc2c1-c1ccccc1)C(=O)CC(c1ccco1)C3 (stereo not drawn) [MLS000080714-01]
AC50: 9.44 µM

O=[N+]([O-])c1ccc(N2CCN(/C(S)=N/C3CCCCC3)CC2)cc1 [MLS000574247-01]
AC50: 1.88 µM

CC(C)(C)c1ccc(C(=O)N2CCN(C(=O)c3nnn4c3COC(c3ccccc3)C4)CC2)cc1 (stereo not drawn) [NCGC00449161-01]
AC50: 10.6 µM

Cc1ccc(CN2CCCC(Cc3ncc(C)n3Cc3ccccc3)C2)o1 (stereo not drawn) [NCGC00469705-01]
AC50: 9.44 µM

Cc1ccc2oc(=O)n(CCOc3ccccc3C)c2c1 [MLS000708194-01]
AC50: 4.73 µM

COc1cc(NC(=O)c2ccc(N)nc2)cc(C(=O)Nc2cccc(C(F)(F)F)c2)c1 [MLS003105961-01]
AC50: 5.31 µM

O=c1cc(-c2cccnc2)oc2c(-c3ccccc3Oc3ccccc3)nccc12 [NCGC00416761-01]
AC50: 17.2 µM

CC(=O)Nc1cccc(C(=O)N2CCC3(CC2)NC(c2ccc(C)cc2)=NO3)c1 [NCGC00446797-01]
AC50: 0.841 µM

COc1ccc(N2CCN(Cc3cc4c(cc3O)CCC4)CC2)cc1 [MLS000572034-01]
AC50: 16.8 µM

COc1cccc(NC(=O)CN(C)C(=O)c2oc3c(ccc4ccccc43)c2C)c1 [MLS001142056-01]
AC50: 0.75 µM

Fc1cccc(CN2CCC(N3CC(OCC4CC4)C34CCCCC4)CC2)c1 (stereo not drawn) [NCGC00463410-01]
AC50: 4.22 µM

NC(Cc1ccccc1)C(=O)N1CCC2(CC1)CN(C(=O)c1ccc(Cl)cc1)CCO2 (stereo not drawn) [NCGC00378158-01]
AC50: 0.841 µM

Cn1c2ccc(F)cc2c2nnc(SCCN3CCCCC3)nc21 [NCGC00102309-01]
AC50: 15 µM

Cc1oc2ccc(O)c(CN3CCN(Cc4ccccc4)CC3)c2c1C(=O)Nc1cccc(Cl)c1C [NCGC00115656-01]
AC50: 0.596 µM

Cc1ccc(Oc2c(C(F)(F)F)oc3c(CN4CCC(C)CC4)c(O)ccc3c2=O)cc1 [NCGC00101480-01]
AC50: 1.68 µM

COC(=O)C1=C(C)N(c2ccc(OC)cc2)C(C)=C(C(=O)OC)C1c1ccccc1 [MLS000780021-01]
AC50: 9.44 µM

CC1C(=O)C(C)C(c2cc(Cl)ccc2O)NC1c1cc(Cl)ccc1O (stereo not drawn) [MLS001197743-01]
AC50: 6.68 µM

CCOc1ccc(-c2cn3c(n2)sc2cc(C(=O)NC(C)C45CC6CC(CC(C6)C4)C5)ccc23)cc1 (stereo not drawn) [NCGC00113230-01]
AC50: 5.96 µM

COC(=O)[C@@H]1Cc2c([nH]c3ccccc23)[C@H]2C[C@H](N3CCCCC3)C[C@@H](c3ccccc3F)N21 [NCGC00421326-01]
AC50: 5.96 µM

COc1cc2c(cc1OC1CCCC1)NC(=O)C21CCN(C(=O)c2cccc(C#N)c2)CC1 [NCGC00416876-01]
AC50: 8.41 µM

O=C1Nc2ccccc2CC12CCN2Cc1ccccn1 (stereo not drawn) [NCGC00477299-01]
AC50: 4.33 µM

COc1ccc(CN2CC3(CCN(C(=O)Nc4ccc(OC)c(F)c4)CC3)C2=O)cc1 [NCGC00460264-01]
AC50: 10.6 µM

Fc1ccccc1CN1CCC[C@H]1c1nc(-c2ccnc(N3CCOCC3)c2)no1 [NCGC00395913-01]
AC50: 15.3 µM

CC(C)c1ccc(-c2noc(SCC(=O)N3CCN(c4ccc(F)cc4)CC3)n2)cc1 [NCGC00127934-01]
AC50: 0.668 µM

O=C(c1nnc(COc2ccc(OC(F)(F)F)cc2)n1-c1ccccc1)N1CCC[C@@H]1C(c1ccccc1)c1ccccc1 [NCGC00415795-01]
AC50: 8.41 µM

CCOc1ccc(NC(=O)c2ccc(-c3nnc4ccc(NC(=O)C5CC5)cn34)cc2)cc1 [NCGC00429851-01]
AC50: 2.99 µM

CCCc1nn2c(=O)cc(COC(=O)c3cccc(NC(=O)COc4ccccc4C)c3)nc2s1 [NCGC00130805-01]
AC50: 13.3 µM

COC(=O)c1ccc(Nc2nnc(-c3ccc(C)c([S+](=O)([O-])N4CCN(C)CC4)c3)c3ccccc23)cc1 [NCGC00099996-01]
AC50: 8.41 µM

O=C(Nc1ccc(Cl)cc1)N1CCC2(CC1)CCN(Cc1cccs1)c1ccccc1O2 [NCGC00478210-01]
AC50: 8.41 µM

Cc1cc(Nc2ccc(C)c(C)c2)n2nc(C)nc2n1 [MLS000116616-01]
AC50: 4.73 µM

CCOc1ccccc1NC(C)C(=O)Nc1cc(C(F)(F)F)ccc1N1CCOCC1 (stereo not drawn) [MLS000336343-01]
AC50: 2.66 µM

Cc1ccc([S+](=O)([O-])N[C@@H]2CN(C)C[C@H]2CN(C)C)cc1F [NCGC00462728-01]
AC50: 15 µM

COc1cccc(CN2CCC(N3CC(OCC4CC4)C34CCCCC4)CC2)n1 (stereo not drawn) [NCGC00463412-01]
AC50: 4.22 µM

COc1ccc(C2CC(c3cccs3)=NN2C(=O)c2ccc(Br)o2)cc1 (stereo not drawn) [MLS000663972-01]
AC50: 5.31 µM

Cc1ccc(C)c(NC(=O)CN(C)C(=O)c2cc3ccccc3o2)c1 [MLS000770584-01]
AC50: 13.3 µM

CCC(C)N(CCNC(=O)c1ccc2c(c1)NC(=O)c1ccccc1S2)C1CCCCC1 (stereo not drawn) [MLS001110969-01]
AC50: 13.3 µM

O=c1cc(-c2ccccc2)[nH]c2ccc(F)cc12 [MLS000517821-01]
AC50: 5.96 µM

CCCn1c(C)cnc1CC1CCCN([S+](=O)([O-])c2cc(OC)ccc2OC)C1 (stereo not drawn) [NCGC00469684-01]
AC50: 10.6 µM

Cc1oc2ccc(O)c(CN(C)Cc3ccccc3)c2c1C(=O)Nc1cccc(C(F)(F)F)c1 [NCGC00115691-01]
AC50: 2.11 µM

COc1ccc(N2CCN(C(c3cc4ccc(C)cc4nc3O)c3nnnn3C3CCCC3)CC2)cc1 (stereo not drawn) [MLS000077379-01]
AC50: 6.68 µM

CCOc1ccccc1C(=O)N1CC(=O)Nc2ccc(Cl)cc2C1c1ccccc1 (stereo not drawn) [NCGC00103922-01]
AC50: 9.44 µM
